Key:
[1] = biological target: T1, human recombinant adrenergic α2B receptor (Homo sapiens, UniProt P18089); experiment: Radioligand binding, adrenergic α2B ([3H]Rauwolscine); details: [3H]Rauwolscine, repeat datapoints each shown; for inhibition at 0.03 µM: read-out: Percentage inhibition of ligand binding, Adrenergic α2B (0.03 μM), compound at 0.03 μM
T1 construct: expressed in transfected cells; host or cells: CHO-K1
T1 sequence (P18089 1-450): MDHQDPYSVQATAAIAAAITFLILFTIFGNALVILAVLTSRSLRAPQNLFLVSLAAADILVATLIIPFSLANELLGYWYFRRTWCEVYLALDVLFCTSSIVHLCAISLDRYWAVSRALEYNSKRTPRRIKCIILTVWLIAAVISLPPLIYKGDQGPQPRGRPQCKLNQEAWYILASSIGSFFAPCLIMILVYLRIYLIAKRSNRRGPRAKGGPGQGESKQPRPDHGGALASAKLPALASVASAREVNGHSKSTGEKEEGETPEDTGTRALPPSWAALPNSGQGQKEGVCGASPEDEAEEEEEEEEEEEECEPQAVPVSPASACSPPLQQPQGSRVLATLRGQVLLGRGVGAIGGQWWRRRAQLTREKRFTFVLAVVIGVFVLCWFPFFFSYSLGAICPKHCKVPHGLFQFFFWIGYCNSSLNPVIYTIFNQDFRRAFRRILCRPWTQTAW
Method in brief: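 Readout: percent inhibition of specific [3H]Rauwolscine binding, measured by filtration and counting. Conditions: CHO-K1 cell-expressed receptor, 2.5 nM radioligand, 60 min, 25° C, Tris-HCl pH 7.4 buffer with MgCl2, EDTA, BSA. Non-specific binding: 10 μM Prazosin.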

[2] = biological target: T2, human recombinant adrenergic α2A receptor (Homo sapiens, UniProt P08913); experiment: Radioligand binding, adrenergic α2A ([3H]MK-912); details: [3H]MK-912, repeat datapoints each shown; for inhibition at 0.1 µM: read-out: Percentage inhibition of ligand binding, Adrenergic α2A (0.1 μM), compound at 0.1 μM
T2 construct: expressed in transfected cells; host or cells: insect Sf9 cells
T2 sequence (P08913 1-465): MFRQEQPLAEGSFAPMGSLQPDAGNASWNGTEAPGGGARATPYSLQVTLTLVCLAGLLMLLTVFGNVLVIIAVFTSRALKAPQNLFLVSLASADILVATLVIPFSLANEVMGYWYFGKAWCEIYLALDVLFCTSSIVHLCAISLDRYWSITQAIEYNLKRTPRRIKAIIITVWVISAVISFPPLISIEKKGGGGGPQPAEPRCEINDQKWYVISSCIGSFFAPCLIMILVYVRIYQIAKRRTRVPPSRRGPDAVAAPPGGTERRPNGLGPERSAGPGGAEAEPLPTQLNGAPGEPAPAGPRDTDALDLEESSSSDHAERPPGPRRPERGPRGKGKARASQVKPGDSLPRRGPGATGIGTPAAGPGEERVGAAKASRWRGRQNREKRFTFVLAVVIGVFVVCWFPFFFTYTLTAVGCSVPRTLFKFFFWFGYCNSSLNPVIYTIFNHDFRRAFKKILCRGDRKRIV
Method in brief: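 Sf9 membranes, 1 nM [3H]MK-912, 60 min, 25 °C, Tris-HCl pH 7.4/MgCl2/EDTA buffer. NSB: 10 μM WB-4101. Filtration, counting; % inhibition of specific binding.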

[3] = biological target: T3, rat adrenergic α1B receptor (Rattus norvegicus, UniProt P15823); experiment: Radioligand binding, adrenergic α1B ([3H]Prazosin); details: [3H]Prazosin, repeat datapoints each shown; for inhibition at 0.1 µM: read-out: Percentage inhibition of ligand binding, Adrenergic α1B (0.1 μM), compound at 0.1 μM
T3 construct: rat adrenergic α1B receptor obtained from Wistar Rat liver; from tissue; host or cells: Wistar rat liver
T3 sequence (P15823 1-515): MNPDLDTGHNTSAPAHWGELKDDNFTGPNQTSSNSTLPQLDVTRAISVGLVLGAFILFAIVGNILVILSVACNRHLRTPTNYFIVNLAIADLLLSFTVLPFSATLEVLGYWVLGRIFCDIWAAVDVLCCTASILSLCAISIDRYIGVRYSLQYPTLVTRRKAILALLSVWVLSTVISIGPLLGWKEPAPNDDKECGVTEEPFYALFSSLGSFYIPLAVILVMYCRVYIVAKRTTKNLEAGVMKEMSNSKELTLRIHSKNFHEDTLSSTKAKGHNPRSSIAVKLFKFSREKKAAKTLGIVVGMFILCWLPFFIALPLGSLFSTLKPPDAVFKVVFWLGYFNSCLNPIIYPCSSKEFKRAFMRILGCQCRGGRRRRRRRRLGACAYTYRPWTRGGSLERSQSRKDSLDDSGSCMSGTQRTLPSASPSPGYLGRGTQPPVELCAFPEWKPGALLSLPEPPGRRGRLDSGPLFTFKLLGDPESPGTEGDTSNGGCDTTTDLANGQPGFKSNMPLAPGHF
Method in brief: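 Rat α1B receptor from Wistar rat liver was incubated with 0.25 nM [3H]prazosin for 60 min at 25 °C in 50 mM Tris-HCl, pH 7.4, 0.5 mM EDTA. Non-specific binding was defined with 10 μM phentolamine. Bound radioligand was measured by filtration and counting, reported as percent inhibition of specific binding.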

Structure (SMILES) | inhibition at 0.03 µM [1] | inhibition at 0.1 µM [2] | inhibition at 0.1 µM [3] | Percentage inhibition of ligand binding, Adrenergic α2B (0.03 μM) ([1]; compound at 0.03 μM, 0.03 µM) | Percentage inhibition of ligand binding, Adrenergic α2A (0.1 μM) ([2]; compound at 0.1 μM, 0.1 µM) | Percentage inhibition of ligand binding, Adrenergic α1B (0.1 μM) ([3]; compound at 0.1 μM, 0.1 µM)
CN1CCc2c(c3ccncc3n2CC(C)(O)c2cccnc2)C1 (stereo not drawn) [II-129] | 1% | 12% | 2% | – | – | –
CC(O)(Cn1c2c(c3cc(Cl)ccc31)C1CCCN1CC2)c1cccnc1 (stereo not drawn) [II-130, 1-(10-chloro-2,3,5,6-tetrahydro-1H-indolizino[7,8-b]indol-7(11cH)-yl)-2-(pyridin-3-yl)propan-2-ol] | – | – | – | 97% | 41% | 43%
Cc1ccc2c(c1)c1c(n2CC(O)c2cccnc2)CCN2CCCC12 (stereo not drawn) [II-131, 2-(9-Methyl-1,2,3,4,5,10c-hexahydro-3a,6-diaza-cyclopenta[c]fluoren-6-yl)-1-pyridin-3-yl-ethanol] | 103% | 85% | 90% | – | – | –
Cc1ccc2c(c1)c1c(n2CC(C)(O)c2cccnc2)CCN(C)CC1 (stereo not drawn) [II-135a, 1-(3,9-dimethyl-2,3,4,5-tetrahydroazepino[4,5-b]indol-6(1H)-yl)-2-(pyridin-3-yl)propan-2-ol] | 34% | -3% | 48% | – | – | –
Cc1ccc2c(c1)c1c(n2CC(O)c2cnn[nH]2)CCN2CCCC12 (stereo not drawn) [II-138] | 77% | 9% | 57% | – | – | –
Cc1ccc2c(c1)c1c(n2CC(O)c2ncc[nH]2)CCN2CCCC12 (stereo not drawn) [II-139, 1-(1H-imidazol-2-yl)-2-(10-methyl-2,3,5,6-tetrahydro-1H-indolizino[7,8-b]indol-7(11cH)-yl)ethanol] | 72% | 7% | 34% | – | – | –
Cc1ccc2c(c1)c1c(n2CC(O)c2cnc[nH]2)CCN2CCCC12 (stereo not drawn) [II-140, 1-(1H-imidazol-5-yl)-2-(10-methyl-2,3,5,6-tetrahydro-1H-indolizino[7,8-b]indol-7(11cH)-yl)ethanol] | 72% | 3% | 53% | – | – | –
Cc1ccc2c(c1)c1c(n2CC(C)(O)c2cncc(C(=O)O)c2)CCN(C)C1 (stereo not drawn) [II-141, 5-(1-(1,2,3,4-tetrahydro-2,8-dimethylpyrido[4,3-b]indol-5-yl)-2-hydroxypropan-2-yl)pyridine-3-carboxylic acid] | 22% | -2% | 7% | – | – | –
Cc1ccc2c(c1)c1c(n2CC(C)(O)c2cnco2)CCN(C)C1 (stereo not drawn) [II-142, 1-(1,2,3,4-tetrahydro-2,8-dimethylpyrido[4,3-b]indol-5-yl)-2-(oxazol-5-yl)propan-2-ol] | 23% | -4% | 5% | – | – | –
Cc1ccc2c(c1)c1c(n2CC(C)(O)c2ccc[nH]c2=O)CCN(C)C1 (stereo not drawn) [II-143, 3-(1-(1,2,3,4-tetrahydro-2,8-dimethylpyrido[4,3-b]indol-5-yl)-2-hydroxypropan-2-yl)pyridin-2(1H)-one] | 22% | -3% | 13% | – | – | –
Cc1ccc2c(c1)c1c(n2CC(C)(O)c2cnccc2Cl)CCN(C)C1 (stereo not drawn) [II-148] | 93% | 27% | 21% | – | – | –
Cc1ccc2c(c1CO)c1c(n2CC(O)c2ccncc2)CCN(C)C1 (stereo not drawn) [II-150, 2-(9-(hydroxymethyl)-2,8-dimethyl-3,4-dihydro-1H-pyrido[4,3-b]indol-5(2H)-yl)-1-(pyridin-4-yl)ethanol] | 30% | 5% | 14% | – | – | –
Cc1ccc2c(c1CO)c1c(n2CC(C)(O)c2cccnc2)CCN(C)C1 (stereo not drawn) [II-153] | 7% | 2% | 2% | – | – | –
Cc1cc2c3c(n(CC(C)(O)c4cccnc4)c2cc1CO)CCN(C)C3 (stereo not drawn) [II-154] | 73% | 11% | 2% | – | – | –
Cc1ccc2c(c1)c1c(n2C(C)(C)C(O)c2ccccc2)CCN(C)C1 (stereo not drawn) [II-187] | 27% | 10% | 54% | – | – | –
Cc1ccc2c(c1)c1c(n2CC(C)(F)c2cccnc2)CCN(C)C1 (stereo not drawn) [II-212, 5-(2-Fluoro-2-pyridin-3-yl-propyl)-2,8-dimethyl-2,3,4,5-tetrahydro-1H-pyrido[4,3-b]indole] | 73% | 19% | 29% | – | – | –
CN1CCc2c(c3cc(CO)ccc3n2CC(C)(F)c2cccnc2)C1 (stereo not drawn) [II-213, [5-(2-fluoro-2-pyridin-3-yl-propyl)-2-methyl-2,3,4,5-tetrahydro-1H-pyrido[4,3-b]indol-8-yl]-methanol] | 11% | 12% | -3% | – | – | –
Cc1ccc2c(c1)c1c(n2CC(CN)c2ccncc2)CCN(C)C1 (stereo not drawn) [II-221] | 0% | 10% | -1% | – | – | –
Cc1ccc2c(c1)c1c(n2CC(CC(=O)C(C)(C)C)c2ccncc2)CCN(C)C1 (stereo not drawn) [II-222, 6-(2,8-dimethyl-1,2,3,4-tetrahydro-pyrido[4,3-b]indol-5-yl)-2,2-dimethyl-5-pyridin-4-yl-hexan-3-one] | 99% | 26% | 19% | – | – | –
COC(=O)CC(Cn1c2c(c3cc(C)ccc31)CN(C)CC2)c1ccncc1 (stereo not drawn) [II-223, 4-(2,8-dimethyl-1,2,3,4-tetrahydro-pyrido[4,3-b]indol-5-yl)-3-pyridin-4-yl-butyric acid methyl ester] | 88% | 8% | 9% | – | – | –
Cc1ccc2c(c1)c1c(n2CC(CCO)c2ccncc2)CCN(C)C1 (stereo not drawn) [II-224, 4-(2,8-dimethyl-1,2,3,4-tetrahydro-pyrido[4,3-b]indol-5-yl)-3-pyridin-4-yl-butan-1-ol] | 68% | 22% | 13% | – | – | –
Cc1ccc2c(c1)c1c(n2CC(CO)c2ccncc2)CCN(C)C1 (stereo not drawn) [II-225] | 8% | -1% | 9% | – | – | –
Cc1ccc2c(c1)c1c(n2CC(CC(C)(C)O)c2ccncc2)CCN(C)C1 (stereo not drawn) [II-226, 5-(2,8-dimethyl-1,2,3,4-tetrahydro-pyrido[4,3-b]indol-5-yl)-2-methyl-4-pyridin-4-yl-pentan-2-ol] | 40% | 4% | 15% | – | – | –
Cc1ccc2c(c1)c1c(n2CC(CC(=O)O)c2ccncc2)CCN(C)C1 (stereo not drawn) [II-228] | 10% | 3% | -2% | – | – | –
Cc1ccc2c(c1)c1c(n2CC(CC(N)=O)c2ccncc2)CCN(C)C1 (stereo not drawn) [II-229, 4-(2,8-dimethyl-1,2,3,4-tetrahydro-pyrido[4,3-b]indol-5-yl)-3-pyridin-4-yl-butyramide] | 12% | 6% | 3% | – | – | –

From patent US8791132B2, “Compounds and methods for treatment of hypertension” (Medivation Technologies, Inc., priority 2011, dated 2014)
